According to patent US10239861B2, “Therapeutic compounds and uses thereof” (GENENTECH, INC., priority 2015, dated 2019):

Each compound was assayed against PCAF bromodomain (His/Flag epitope tagged PCAF719-832) (Homo sapiens (Human), UniProt Q92831) (assay: PCAF AlphaLisa binding assay). Details: not given.
Method: IC50 Measurements for Inhibitors Using PCAF AlphaLisa Binding Assay
PCAF bromodomain binding and inhibition of the compounds disclosed herein was assessed by monitoring the engagement of biotinylated small molecule ligand (known to bind to the PCAF bromodomain) with the target using the AlphaLisa technology (Perkin-Elmer).

PCAF bromodomain (His/Flag epitope tagged PCAF719-832), sequence (Q92831 719-832): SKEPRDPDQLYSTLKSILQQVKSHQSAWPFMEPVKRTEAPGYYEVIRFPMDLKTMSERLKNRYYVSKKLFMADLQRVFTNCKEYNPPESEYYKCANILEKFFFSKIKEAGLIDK

`Cn1ncc(NC2CN3CCC2CC3)c(Cl)c1=O` (racemic) [Example 10, (racemic)-4-chloro-2-methyl-5-(quinuclidin-3-ylamino)pyridazin-3(2H)-one] gave an IC50 of 975 nM.

Same assay, conditions: AlphaLisa; PCAF bromodomain 225 nM, biotinylated small molecule ligand 6 nM; read-out: PCAF IC50

In order of rising IC50:
1. C[C@@H]1CC[C@@H](Nc2cnn(C)c(=O)c2Cl)CN1C (stereo in doubt) [Example 26, 4-chloro-5-((1,6-dimethylpiperidin-3-yl)amino)-2-methylpyridazin-3(2H)-one]  34.8 nM
2. C[C@H]1CC[C@@H](Nc2cnn(C)c(=O)c2Cl)CN1C (stereo in doubt) [Example 29, 4-chloro-5-((1,6-dimethylpiperidin-3-yl)amino)-2-methylpyridazin-3(2H)-one]  48.5 nM
3. CN1CCCCC(Nc2cnn(C)c(=O)c2Br)C1 (stereo not shown) [Example 13, 4-bromo-2-methyl-5-((1-methylazepan-3-yl)amino)pyridazin-3(2H)-one]  51 nM
4. CC1CCC(Nc2cnn(C)c(=O)c2Cl)CN1C (stereo not shown) [Example 25, 4-chloro-5-((1,6-dimethylpiperidin-3-yl)amino)-2-methylpyridazin-3(2H)-one]  60 nM
5. CN1CCCCC(Nc2cnn(C)c(=O)c2Cl)C1 (racemic) [Example 1, 4-chloro-2-methyl-5-((1-methylazepan-3-yl)amino)pyridazin-3(2H)-one]  62 nM
6. Cn1ncc(NC2CCCN(Cc3cccc(OC(F)F)c3)C2)c(Cl)c1=O (stereo not shown) [Example 44, 4-chloro-5-[[1-[[3-(difluoromethoxy)phenyl]methyl]-3-piperidyl]amino]-2-methyl-pyridazin-3-one]  94.9 nM
7. CN1Cc2ccccc2C[C@@H](Nc2cnn(C)c(=O)c2Cl)C1 [Example 39, (R)-4-chloro-2-methyl-5-((2-methyl-2,3,4,5-tetrahydro-1H-benzo[c]azepin-4-yl)amino)pyridazin-3(2H)-one]  102 nM
8. C[C@@H]1CC[C@H](Nc2cnn(C)c(=O)c2Cl)CN1C (stereo in doubt) [Example 27, 4-chloro-5-((1,6-dimethylpiperidin-3-yl)amino)-2-methylpyridazin-3(2H)-one]  144 nM
9. CC(C)N1CCCC(Nc2cnn(C)c(=O)c2Cl)C1 (stereo not shown) [Example 32, 4-chloro-5-((1-isopropylpiperidin-3-yl)amino)-2-methylpyridazin-3(2H)-one]  147 nM
10. CN1CCCCCC(Nc2cnn(C)c(=O)c2Cl)C1 (stereo not shown) [Example 40, 4-chloro-2-methyl-5-((1-methylazocan-3-yl)amino)pyridazin-3(2H)-one]  155 nM
11. Cc1c(NC2CCCCN(C)C2)cnn(C)c1=O (stereo not shown) [Example 12, 2,4-dimethyl-5-((1-methylazepan-3-yl)amino)pyridazin-3(2H)-one]  165 nM
12. CN1CC(Nc2cnn(C)c(=O)c2Cl)CC(c2ccccc2)C1 (racemic) [Example 24, 4-chloro-2-methyl-5-((1-methyl-5-phenylpiperidin-3-yl)amino)pyridazin-3(2H)-one]  167 nM
13. C[C@@H]1CC[C@@H](Nc2cnn(C)c(=O)c2Cl)CN1C (stereo in doubt) [Example 28, 4-chloro-5-((1,6-dimethylpiperidin-3-yl)amino)-2-methylpyridazin-3(2H)-one]  175 nM
14. Cn1ncc(NC2CCCN(Cc3c[nH]cn3)C2)c(Cl)c1=O (stereo not shown) [Example 49, 4-chloro-5-[[1-(1H-imidazol-4-ylmethyl)-3-piperidyl]amino]-2-methyl-pyridazin-3-one]  178 nM
15. CN1CCCC(Nc2cnn(C)c(=O)c2Cl)CC1 (racemic) [Example 4, (racemic)-4-chloro-2-methyl-5-((1-methylazepan-4-yl)amino)pyridazin-3(2H)-one]  187 nM
16. Cn1ncc(NC2CCCN(Cc3cc(Cl)cc(Cl)c3)C2)c(Cl)c1=O (stereo not shown) [Example 46, 4-chloro-5-((1-(3,5-dichlorobenzyl)piperidin-3-yl)amino)-2-methylpyridazin-3(2H)-one]  278 nM
17. CN(C)c1ccc(CN2CCCC(Nc3cnn(C)c(=O)c3Cl)C2)cc1 (stereo not shown) [Example 43, 4-chloro-5-[[1-[(4-dimethylaminophenyl)methyl]-3-piperidyl]amino]-2-methyl-pyridazin-3-one]  310 nM
18. C/C=C/Cn1ncc(NC2CCCCN(C)C2)c(Cl)c1=O (stereo not shown) [Example 17, (E)-2-(but-2-en-1-yl)-4-chloro-5-((1-methylazepan-3-yl)amino)pyridazin-3(2H)-one]  312 nM
19. COCCN1CCCC(Nc2cnn(C)c(=O)c2Cl)C1 (stereo not shown) [Example 30, 4-chloro-5-((1-(2-methoxyethyl)piperidin-3-yl)amino)-2-methylpyridazin-3(2H)-one]  315 nM
20. Cn1cc(CN2CCCC(Nc3cnn(C)c(=O)c3Cl)C2)cn1 (stereo not shown) [Example 51, 4-chloro-2-methyl-5-[[1-[(1-methylpyrazol-4-yl)methyl]-3-piperidyl]amino]pyridazin-3-one]  371 nM
21. Cn1ncc(NC2CCCN(Cc3ncc[nH]3)C2)c(Cl)c1=O (stereo not shown) [Example 48, 4-chloro-5-[[1-(1H-imidazol-2-ylmethyl)-3-piperidyl]amino]-2-methyl-pyridazin-3-one]  379 nM
22. Cn1ncc(NC2CCCN(Cc3ccc(-n4ccnc4)cc3)C2)c(Cl)c1=O (stereo not shown) [Example 45, 4-chloro-5-[[1-[(4-imidazol-1-ylphenyl)methyl]-3-piperidyl]amino]-2-methyl-pyridazin-3-one]  386 nM
23. Cn1ncc(NC2CCCN(c3ccccn3)C2)c(Cl)c1=O (stereo not shown) [Example 9, 4-chloro-2-methyl-5-((1-(pyridin-2-yl)piperidin-3-yl)amino)pyridazin-3(2H)-one]  403 nM
24. CCn1ncc(NC2CCCCN(C)C2)c(Cl)c1=O (stereo not shown) [Example 15, 4-chloro-2-ethyl-5-((1-methylazepan-3-yl)amino)pyridazin-3(2H)-one]  407 nM
25. CN1CCCCC(Nc2cnn(CC3CC3)c(=O)c2Cl)C1 (stereo not shown) [Example 16, 4-chloro-2-(cyclopropylmethyl)-5((1-methylazepan-3-yl)amino)pyridazin-3(2H)-one]  421 nM
26. Cc1cncc(CN2CCCC(Nc3cnn(C)c(=O)c3Cl)C2)c1 (stereo not shown) [Example 53, 4-chloro-2-methyl-5-[[1-[(5-methyl-3-pyridyl)methyl]-3-piperidyl]amino]pyridazin-3-one]  441 nM
27. CN1[C@@H]2CC[C@H]1C[C@@H](Nc1cnn(C)c(=O)c1Cl)C2 [Example 5, 4-chloro-2-methyl-5-(((1R,3r,5S)-8-methyl-8-azabicyclo[3.2.1]octan-3-yl)amino)pyridazin-3(2H)-one]  480 nM
28. CN1[C@@H]2CC[C@H]1C[C@H](Nc1cnn(C)c(=O)c1Cl)C2 [Example 6, 4-chloro-2-methyl-5-(((1R,3s,5S)-8-methyl-8-azabicyclo[3.2.1]octan-3-yl)amino)pyridazin-3(2H)-one]  492 nM
29. Cn1ncc(NC2CCCN(Cc3cncnc3)C2)c(Cl)c1=O (stereo not shown) [Example 50, 4-chloro-2-methyl-5-[[1-(pyrimidin-5-ylmethyl)-3-piperidyl]amino]pyridazin-3-one]  625 nM
30. C[C@@H](c1ccccc1)N1CCCC(Nc2cnn(C)c(=O)c2Cl)C1 (stereo partly drawn) [Example 36, 4-chloro-2-methyl-5-((1-((S)-1-phenylethyl)piperidin-3-yl)amino)pyridazin-3(2H)-one]  631 nM
31. C[C@H](c1ccccc1)N1CCCC(Nc2cnn(C)c(=O)c2Cl)C1 (stereo partly drawn) [Example 35, 4-chloro-2-methyl-5-((1-((R)-1-phenylethyl)piperidin-3-yl)amino)pyridazin-3(2H)-one]  671 nM
32. Cn1ncc(NC2CCCN(Cc3ccccc3N3CCOCC3)C2)c(Cl)c1=O (stereo not shown) [Example 47, 4-chloro-2-methyl-5-[[1-[(2-morpholinophenyl)methyl]-3-piperidyl]amino]pyridazin-3-one]  921 nM
33. Cn1ncc(N[C@@H]2CCCCN(Cc3ccccc3)C2)c(Cl)c1=O [Example 37, (R)-5-((1-benzylazepan-3-yl)amino)-4-chloro-2-methylpyridazin-3(2H)-one]  972 nM
34. Cn1ncc(NC2CCCN(Cc3c(F)cccc3F)C2)c(Cl)c1=O (stereo not shown) [Example 42, 4-chloro-5-((1-(2,6-difluorobenzyl)piperidin-3-yl)amino)-2-methylpyridazin-3(2H)-one]  1000 nM
35. Cn1ncc(NC2CCCOC2)c(Cl)c1=O (racemic) [Example 11, (racemic)-4-chloro-2-methyl-5-((tetrahydro-2H-pyran-3-yl)amino)pyridazin-3(2H)-one]  1020 nM
36. CC(C)n1ncc(NC2CCCCN(C)C2)c(Cl)c1=O (stereo not shown) [Example 14, 4-chloro-2-isopropyl-5-((1-methylazepan-3-yl)amino)pyridazin-3(2H)-one]  1090 nM
37. CN1CCC(Nc2cnn(C)c(=O)c2Cl)CC1 [Example 2, 4-chloro-2-methyl-5-((1-methylpiperidin-4-yl)amino)pyridazin-3(2H)-one]  1220 nM
38. Cn1ncc(NC2CCCN(C3COC3)C2)c(Cl)c1=O (stereo not shown) [Example 31, 4-chloro-2-methyl-5-((1-(oxetan-3-yl)piperidin-3-yl)amino)pyridazin-3(2H)-one]  1220 nM
39. Cn1ccnc1CN1CCCC(Nc2cnn(C)c(=O)c2Cl)C1 (stereo not shown) [Example 52, 4-chloro-2-methyl-5-((1-((1-methyl-1H-imidazol-2-yl)methyl)piperidin-3-yl)amino)pyridazin-3(2H)-one]  1410 nM
40. Cc1nc(CN2CCCC(Nc3cnn(C)c(=O)c3Cl)C2)[nH]c1C (stereo not shown) [Example 54, 4-chloro-5-[[1-[(4,5-dimethyl-1H-imidazol-2-yl)methyl]-3-piperidyl]amino]-2-methyl-pyridazin-3-one]  1440 nM
41. Cn1ncc(NC2CCCN(Cc3ccccn3)C2)c(Cl)c1=O (stereo not shown) [Example 33, 4-chloro-2-methyl-5-((1-(pyridin-2-ylmethyl)piperidin-3-yl)amino)pyridazin-3(2H)-one]  1980 nM
42. Cn1ncc(N[C@H]2CCCCN(Cc3ccccc3)C2)c(Cl)c1=O [Example 38, (S)-5-((1-benzylazepan-3-yl)amino)-4-chloro-2-methylpyridazin-3(2H)-one]  3770 nM
